Values after ≈ are worked out from the molar mass of the structure shown. Values joined by “and” are separate entries in the source; they are usually repeats but may differ in a detail not shown here. Identical values can stand only once.
Legend:
Assay in all cases: ≥ marks a high value that may be exact or a test limit, other limits are often not marked, values filed in µg/mL are converted to µM
[1] = tested on: Staphylococcus aureus ATCC 25923
[2] = tested on: Escherichia coli ATCC 25922
[3] = tested on: Pseudomonas aeruginosa ATCC 27853

| SMILES | MIC [1] | MIC [2] | MIC [3] |
| --- | --- | --- | --- |
| CC[C@H](C)[C@H](NC(=O)[C@H](CCCN=C(N)N)NC(=O)[C@H](CCCCN)NC(=O)[C@H](CC(C)C)NC(=O)[C@H](CC(C)C)NC(=O)[C@H](C)N)C(=O)N[C@@H](CCCCN)C(=O)N[C@H](C(=O)N[C@@H](CC(C)C)C(=O)N[C@@H](CC(C)C)C(N)=O)[C@@H](C)O [ALLKRIKTLL] | > 18 µM | > 18 µM |  |
| CC(C)C[C@H](NC(=O)[C@H](CC(C)C)NC(=O)[C@H](CCCCN)NC(=O)[C@H](CCCCN)NC(=O)[C@H](C)NC(=O)[C@H](CC(C)C)NC(=O)[C@H](CCCCN)NC(=O)[C@H](CC(C)C)NC(=O)[C@@H](N)Cc1ccccc1)C(N)=O [FLKLAKKLL] |  |  | 59.6 µM and 119 µM |
| CC[C@H](C)[C@H](NC(=O)[C@@H](NC(=O)[C@@H](NC(=O)CNC(=O)[C@H](C)NC(=O)[C@@H](NC(=O)[C@H](CC(N)=O)NC(=O)[C@@H](NC(=O)[C@H](C)NC(=O)[C@H](CC(C)C)NC(=O)[C@H](CC(N)=O)NC(=O)[C@H](CCCCN)NC(=O)[C@@H](NC(=O)[C@@H](NC(=O)[C@H](CO)NC(=O)[C@H](CC(C)C)NC(=O)[C@H](Cc1ccccc1)NC(=O)CN)[C@@H](C)O)C(C)C)[C@@H](C)O)C(C)C)[C@@H](C)O)C(C)C)C(=O)N[C@@H](CC(=O)O)C(=O)N[C@H](C(=O)N[C@@H](CC(C)C)C(=O)N[C@@H](CCCCN)C(=O)N[C@H]1CSSC[C@@H](C(=O)N[C@@H](CCCN=C(N)N)C(=O)N[C@@H](CO)C(=O)O)NC(=O)CNC(=O)CNC(=O)[C@H]([C@@H](C)O)NC(=O)[C@H](C(C)C)NC(=O)[C@H](CCCCN)NC1=O)[C@@H](C)O [GFLSTVKNLATNVAGTVIDTLKCKVTGGCRS] |  | 120 µM (≈ 378 µg/mL) |  |
| CC[C@H](C)[C@H](NC(=O)CNC(=O)[C@@H](NC(=O)[C@H](CCCCN)NC(=O)[C@@H](NC(=O)[C@H](CCCCN)NC(=O)CN)C(C)C)[C@@H](C)CC)C(=O)N[C@@H](CC(N)=O)C(=O)NCC(=O)N[C@@H](Cc1ccccc1)C(=O)NCC(=O)N[C@@H](CCCN=C(N)N)C(=O)N[C@H](C(=O)NCC(=O)N[C@@H](CCCN=C(N)N)C(=O)N[C@@H](CC(C)C)C(=O)N[C@H](C(=O)N[C@@H](C)C(=O)O)C(C)C)[C@@H](C)CC [GKVKIGINGFGRIGRLVA] | 276 µM (≈ 512 µg/mL) | 69 µM (≈ 128 µg/mL) |  |
| CC[C@H](C)[C@H](NC(=O)[C@H](CCCN=C(N)N)NC(=O)[C@H](CCCCN)NC(=O)[C@H](CC(C)C)NC(=O)[C@H](CC(C)C)NC(=O)CN)C(=O)N[C@@H](CCCCN)C(=O)N[C@@H](C)C(=O)N[C@@H](CC(C)C)C(=O)N[C@@H](CC(C)C)C(N)=O [GLLKRIKALL] | 7.11 µM (≈ 7.99 µg/mL) | 14.2 µM (≈ 16 µg/mL) |  |
| CC[C@H](C)[C@H](NC(=O)CNC(=O)[C@H](CCC(N)=O)NC(=O)[C@H](C)NC(=O)[C@@H](NC(=O)[C@H](CCCCN)NC(=O)[C@H](CCCCN)NC(=O)[C@H](CC(C)C)NC(=O)[C@H](C)NC(=O)[C@H](CC(N)=O)NC(=O)[C@H](CC(C)C)NC(=O)CN)C(C)C)C(=O)N[C@@H](Cc1cnc[nH]1)C(=O)N[C@@H](CCC(=O)O)C(=O)N[C@@H](C)C(=O)N[C@H](C(=O)N[C@@H](CCCCN)C(=O)N[C@@H](CC(C)C)C(=O)N[C@H](C(=O)N[C@@H](CC(N)=O)C(=O)N[C@@H](CC(N)=O)C(=O)N[C@@H](Cc1cnc[nH]1)C(=O)N[C@H](C(=O)N[C@@H](CCC(N)=O)C(N)=O)C(C)C)[C@@H](C)CC)[C@@H](C)CC [GLNALKKVAQGIHEAIKLINNHVQ] |  | 11.3 µM (≈ 29.5 µg/mL) |  |
| CC[C@H](C)[C@H](NC(=O)[C@H](C)NC(=O)CNC(=O)[C@H](C)NC(=O)[C@H](CCCCN)NC(=O)[C@H](CO)NC(=O)[C@H](C)NC(=O)[C@H](CCSC)NC(=O)CN)C(=O)N[C@@H](C)C(=O)NCC(=O)N[C@@H](CCCCN)C(=O)N[C@H](C(=O)N[C@@H](C)C(=O)N[C@@H](CCCCN)C(=O)N[C@H](C(=O)N[C@@H](C)C(=O)N[C@@H](Cc1c[nH]c2ccccc12)C(=O)N[C@@H](CCCCN)C(=O)N[C@@H](C)C(=O)N[C@@H](CC(C)C)C(=O)NCC(=O)NCC(=O)N[C@@H](CS)C(N)=O)C(C)C)[C@@H](C)CC [GMASKAGAIAGKIAKVAWKALGGC] |  | 4.42 µM (≈ 9.98 µg/mL) |  |
| CC[C@H](C)[C@H](NC(=O)[C@H](C)NC(=O)[C@@H](NC(=O)[C@H](C)NC(=O)[C@H](CCCCN)NC(=O)[C@H](C)NC(=O)[C@H](CC(C)C)NC(=O)[C@H](CCCCN)NC(=O)CNC(=O)[C@H](CC(C)C)NC(=O)[C@@H](NC(=O)[C@H](CO)NC(=O)CNC(=O)[C@H](C)NC(=O)[C@@H](NC(=O)[C@H](CO)NC(=O)[C@H](C)NC(=O)[C@H](CCSC)NC(=O)CN)[C@@H](C)O)C(C)C)C(C)C)C(=O)NCC(=O)N[C@@H](C)C(=O)N[C@@H](CC(C)C)C(N)=O [GMASTAGSVLGKLAKAVAIGAL] | > 200 µM | > 200 µM |  |

Continued, values first:

| MIC [1] | MIC [2] | MIC [3] | SMILES |
| --- | --- | --- | --- |
|  | > 200 µM |  | CC[C@H](C)[C@H](NC(=O)[C@H](CCCN=C(N)N)NC(=O)[C@H](CCCCN)NC(=O)[C@H](CCSC)NC(=O)[C@H](CCSC)NC(=O)CN)C(=O)N[C@@H](CCCCN)C(=O)N[C@H](C(=O)N[C@@H](CCSC)C(=O)N[C@@H](CCSC)C(N)=O)[C@@H](C)O [GMMKRIKTMM] |
|  | 5.76 µM (≈ 7.99 µg/mL) |  | CC[C@H](C)[C@H](NC(=O)[C@H](Cc1c[nH]c2ccccc12)NC(=O)[C@H](Cc1c[nH]c2ccccc12)NC(=O)[C@H](Cc1c[nH]c2ccccc12)NC(=O)[C@H](Cc1c[nH]c2ccccc12)NC(=O)[C@H](CCCCN)NC(=O)[C@H](CCCCN)NC(=O)[C@H](CCCCN)NC(=O)[C@@H](N)CCCCN)C(N)=O [KKKKWWWWI] |
|  |  | 4 µM (≈ 11.5 µg/mL) | CC[C@H](C)[C@H](NC(=O)[C@H](CC(C)C)NC(=O)[C@H](C)NC(=O)[C@@H]1CCCN1C(=O)[C@H](CC(C)C)NC(=O)CNC(=O)[C@@H](NC(=O)[C@@H](NC(=O)[C@H](CC(C)C)NC(=O)[C@@H](NC(=O)[C@H](CCCCN)NC(=O)[C@H](CCCCN)NC(=O)[C@H](C)NC(=O)[C@H](C)NC(=O)[C@H](CO)NC(=O)[C@@H](NC(=O)[C@H](CC(C)C)NC(=O)[C@H](CCCCN)NC(=O)[C@H](CCCCN)NC(=O)[C@@H](NC(=O)[C@H](Cc1ccccc1)NC(=O)[C@H](CCCCN)NC(=O)[C@H](CCCCN)NC(=O)[C@H](Cc1c[nH]c2ccccc12)NC(=O)[C@@H](N)CCCCN)[C@@H](C)CC)[C@@H](C)O)C(C)C)[C@@H](C)O)[C@@H](C)O)C(=O)N[C@@H](CO)C(=O)O [KWKKFIKKLTSAAKKVLTTGLPALIS] |
|  |  | 32 µM (≈ 52 µg/mL) | CC(C)C[C@H](NC(=O)[C@H](Cc1c[nH]c2ccccc12)NC(=O)[C@H](C)NC(=O)CNC(=O)[C@H](Cc1c[nH]c2ccccc12)NC(=O)[C@H](CC(N)=O)NC(=O)[C@@H](N)CC(C)C)C(=O)N[C@@H](CCCCN)C(=O)N[C@@H](Cc1cnc[nH]1)C(=O)N[C@@H](Cc1c[nH]c2ccccc12)C(=O)N[C@@H](Cc1c[nH]c2ccccc12)C(=O)N[C@@H](CCCCN)C(=O)O [LNWGAWLKHWWK] |
| 10 µM (≈ 15.8 µg/mL) |  |  | CC(C)C[C@H](NC(=O)[C@H](CCCN=C(N)N)NC(=O)[C@H](CCCN=C(N)N)NC(=O)[C@H](CC(C)C)NC(=O)[C@H](Cc1c[nH]c2ccccc12)NC(=O)[C@H](CCCN=C(N)N)NC(=O)[C@H](Cc1c[nH]c2ccccc12)NC(=O)[C@@H](NC(=O)[C@H](CCCCN)NC(=O)[C@H](CCCN=C(N)N)NC(=O)[C@@H](N)CC(C)C)C(C)C)C(N)=O [LRKVWRWLRRL] |
|  | 4.48 µM (≈ 20 µg/mL) |  | CC[C@H](C)[C@@H]1NC(=O)[C@H](CCCCN)NC(=O)[C@@H]2CCCN2C(=O)[C@H](Cc2cnc[nH]2)NC(=O)CNC(=O)[C@@H]2CSSC[C@@H]3NC(=O)[C@H](CO)NC(=O)CNC(=O)CNC(=O)[C@H](Cc4ccc(O)cc4)NC(=O)[C@H](CO)NC(=O)[C@H](CCSC)NC(=O)[C@@H](NC(=O)[C@@H](NC(=O)[C@@H](NC(=O)[C@@H]4CCCN4C(=O)[C@H](CO)NC(=O)[C@H](CC(N)=O)NC(=O)[C@@H](NC(=O)[C@H](CC(C)C)NC(=O)[C@@H](N)CCC(N)=O)[C@@H](C)CC)C(C)C)[C@@H](C)O)CSSC[C@H](NC(=O)[C@H](CCCN=C(N)N)NC1=O)C(=O)N[C@H](C(=O)N[C@@H](CCCN=C(N)N)C(=O)N[C@@H](CCCN=C(N)N)C(=O)N[C@@H](CCCCN)C(=O)O)CSSC[C@H](NC(=O)[C@H](CO)NC(=O)[C@H](CCCN=C(N)N)NC(=O)[C@H](CCC(N)=O)NC3=O)C(=O)N[C@@H](CC(N)=O)C(=O)NCC(=O)NCC(=O)N[C@@H](Cc1ccccc1)C(=O)N[C@@H](CCCN=C(N)N)C(=O)N[C@@H](CC(C)C)C(=O)NCC(=O)NCC(=O)N[C@@H](Cc1cnc[nH]1)C(=O)N2 [QLINSPVTCMSYGGSCQRSCNGGFRLGGHCGHPKIRCCRRK] |
|  | > 100 µM | > 100 µM | CC[C@H](C)[C@H](NC(=O)[C@H](Cc1ccc(O)cc1)NC(=O)[C@H](CCC(N)=O)NC(=O)[C@H](CC(C)C)NC(=O)[C@H](C)NC(=O)[C@H](CCCCN)NC(=O)[C@H](CCCCN)NC(=O)[C@H](CCSC)NC(=O)[C@H](CCCCN)NC(=O)[C@H](CCCCN)NC(=O)[C@H](CCCCN)NC(=O)[C@H](CCCN=C(N)N)NC(=O)[C@H](CCCN=C(N)N)NC(=O)[C@H](Cc1ccc(O)cc1)NC(=O)[C@@H](N)CCCN=C(N)N)C(=O)N[C@@H](CCCCN)C(=O)N[C@@H](CC(C)C)C(N)=O [RYRRKKKMKKALQYIKL] |
| 12.7 µM (≈ 25 µg/mL) |  |  | CC(C)C[C@H](NC(=O)[C@H](C)NC(=O)[C@@H](N)CO)C(=O)N[C@H](C(=O)NCC(=O)N[C@H]1CSSC[C@@H](C(=O)N[C@@H](Cc2ccccc2)C(=O)NCC(=O)N[C@@H](CCCN=C(N)N)C(=O)O)NC(=O)[C@@H]2CCCN2C(=O)[C@H](CCCCN)NC(=O)[C@@H]2CCCN2C(=O)[C@@H]2CCCN2C(=O)[C@H](Cc2ccc(O)cc2)NC(=O)[C@H](CO)NC(=O)[C@H](CCCCN)NC(=O)[C@H]([C@@H](C)O)NC(=O)CNC1=O)C(C)C [SALVGCGTKSYPPKPCFGR] |
|  | 16 µM (≈ 29.7 µg/mL) |  | CC(C)C[C@H](NC(=O)[C@H](Cc1ccccc1)NC(=O)[C@@H]1CCCN1C(=O)[C@H](Cc1ccc(O)cc1)NC(=O)[C@H](Cc1ccc(O)cc1)NC(=O)[C@H](Cc1c[nH]c2ccccc12)NC(=O)[C@@H]1CCCN1C(=O)[C@H](Cc1ccccc1)NC(=O)[C@H](CCCN=C(N)N)NC(=O)[C@H](CCCN=C(N)N)NC(=O)[C@@H](N)C(C)C)C(=O)N[C@@H](CCCN=C(N)N)C(=O)N[C@@H](CCCN=C(N)N)C(N)=O [VRRFPWYYPFLRR] |

Source: DBAASP
